In US12428394B2, “2,4-disubstituted pyrimidine derivative, preparation method therefor and use thereof” (CHENGDU ZENITAR BIOMEDICAL TECHNOLOGY CO., LTD., priority 2019, dated 2025):

Experiments:
[1] = system: MV4-11 cells (FLT3-ITD+/+); assay: Inhibition of cell proliferation by MTT experiment, MV4-11; format: cell-based, human; details: Homo sapiens, MV4-11; MTT, 72 h; read-out: IC50 value on cell proliferation inhibition, MV4-11 FLT3-ITD+/+
Method in brief: (§1)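 MTT assay in MV4-11, MOLM-13 (FLT3-ITD) and SET-2 (JAK2 V617F) cells at 10,000–15,000 cells/well in IMDM with 10% FBS. Cells are exposed to compound for 72 h at 37 °C, then to MTT for 1–3 h. IC50 is fitted from inhibition rates across concentrations.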

[2] = biological target: T1, JAK2 (Homo sapiens, UniProt O60674); assay: In vitro kinase activity experiment, JAK2; format: biochemical; details: inhibition rate of enzyme at 500 nM; measured by Eurofins
T1 construct: purchased Eurofins
Method in brief: (§2)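 Reactions began on MgATP addition after the kinase, substrate, γ33P-ATP, 10 mM magnesium acetate and compound series were mixed in MOPS buffer pH 7.0 with EDTA and MnCl2. After 40 min at room temperature, phosphate quench, filter-mat capture and washing, incorporated 33P was measured by scintillation counting.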

[3] = system: MOLM-13 cells (FLT3-ITD-/+); assay: Inhibition of cell proliferation by MTT experiment, MOLM-13; format: cell-based, human; details: Homo sapiens, MOLM-13; MTT, 72 h; read-out: IC50 value on cell proliferation inhibition, MOLM-13 FLT3-ITD-/+
Method in brief: as §1

[4] = system: SET-2 cells (JAK2 V617F); assay: Inhibition of cell proliferation by MTT experiment, SET-2; format: cell-based; details: Homo sapiens, SET-2; MTT, 72 h; read-out: IC50 value on cell proliferation inhibition, SET-2 (V617F)
Method in brief: as §1

[5] = biological target: T2, FLT3 (Homo sapiens, UniProt P36888); assay: In vitro kinase activity experiment, FLT3; format: biochemical; details: 40 min; inhibition rate of enzyme at 500 nM; measured by Eurofins; read-out: Kinase activity @ 500 nM (%) FLT3
T2 construct: purchased Eurofins
T2 sequence (P36888 27-993): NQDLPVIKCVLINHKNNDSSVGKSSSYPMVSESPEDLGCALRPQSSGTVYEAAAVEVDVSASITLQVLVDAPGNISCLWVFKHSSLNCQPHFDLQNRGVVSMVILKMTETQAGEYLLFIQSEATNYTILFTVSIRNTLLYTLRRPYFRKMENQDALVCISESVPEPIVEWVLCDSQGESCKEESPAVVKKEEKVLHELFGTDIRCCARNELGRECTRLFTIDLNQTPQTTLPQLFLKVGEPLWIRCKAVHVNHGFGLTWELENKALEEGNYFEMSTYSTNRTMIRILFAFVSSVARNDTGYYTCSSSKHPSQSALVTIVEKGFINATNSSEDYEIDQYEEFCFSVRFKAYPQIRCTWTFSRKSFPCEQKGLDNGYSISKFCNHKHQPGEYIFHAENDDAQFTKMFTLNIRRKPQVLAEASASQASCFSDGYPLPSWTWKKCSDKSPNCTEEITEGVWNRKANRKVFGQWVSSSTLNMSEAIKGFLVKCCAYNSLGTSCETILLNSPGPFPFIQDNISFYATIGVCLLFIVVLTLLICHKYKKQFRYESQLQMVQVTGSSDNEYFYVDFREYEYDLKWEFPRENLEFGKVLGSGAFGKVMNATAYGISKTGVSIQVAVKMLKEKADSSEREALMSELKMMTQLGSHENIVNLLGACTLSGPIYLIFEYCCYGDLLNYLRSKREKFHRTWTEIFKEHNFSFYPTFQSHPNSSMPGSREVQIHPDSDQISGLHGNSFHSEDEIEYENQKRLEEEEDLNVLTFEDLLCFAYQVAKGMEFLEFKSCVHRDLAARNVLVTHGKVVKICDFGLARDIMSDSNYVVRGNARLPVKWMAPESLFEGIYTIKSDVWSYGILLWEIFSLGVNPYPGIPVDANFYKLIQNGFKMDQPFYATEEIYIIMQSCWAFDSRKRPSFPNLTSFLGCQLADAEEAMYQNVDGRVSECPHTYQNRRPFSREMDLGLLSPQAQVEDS
Method in brief: as §2

T1 sequence (O60674 whole entry): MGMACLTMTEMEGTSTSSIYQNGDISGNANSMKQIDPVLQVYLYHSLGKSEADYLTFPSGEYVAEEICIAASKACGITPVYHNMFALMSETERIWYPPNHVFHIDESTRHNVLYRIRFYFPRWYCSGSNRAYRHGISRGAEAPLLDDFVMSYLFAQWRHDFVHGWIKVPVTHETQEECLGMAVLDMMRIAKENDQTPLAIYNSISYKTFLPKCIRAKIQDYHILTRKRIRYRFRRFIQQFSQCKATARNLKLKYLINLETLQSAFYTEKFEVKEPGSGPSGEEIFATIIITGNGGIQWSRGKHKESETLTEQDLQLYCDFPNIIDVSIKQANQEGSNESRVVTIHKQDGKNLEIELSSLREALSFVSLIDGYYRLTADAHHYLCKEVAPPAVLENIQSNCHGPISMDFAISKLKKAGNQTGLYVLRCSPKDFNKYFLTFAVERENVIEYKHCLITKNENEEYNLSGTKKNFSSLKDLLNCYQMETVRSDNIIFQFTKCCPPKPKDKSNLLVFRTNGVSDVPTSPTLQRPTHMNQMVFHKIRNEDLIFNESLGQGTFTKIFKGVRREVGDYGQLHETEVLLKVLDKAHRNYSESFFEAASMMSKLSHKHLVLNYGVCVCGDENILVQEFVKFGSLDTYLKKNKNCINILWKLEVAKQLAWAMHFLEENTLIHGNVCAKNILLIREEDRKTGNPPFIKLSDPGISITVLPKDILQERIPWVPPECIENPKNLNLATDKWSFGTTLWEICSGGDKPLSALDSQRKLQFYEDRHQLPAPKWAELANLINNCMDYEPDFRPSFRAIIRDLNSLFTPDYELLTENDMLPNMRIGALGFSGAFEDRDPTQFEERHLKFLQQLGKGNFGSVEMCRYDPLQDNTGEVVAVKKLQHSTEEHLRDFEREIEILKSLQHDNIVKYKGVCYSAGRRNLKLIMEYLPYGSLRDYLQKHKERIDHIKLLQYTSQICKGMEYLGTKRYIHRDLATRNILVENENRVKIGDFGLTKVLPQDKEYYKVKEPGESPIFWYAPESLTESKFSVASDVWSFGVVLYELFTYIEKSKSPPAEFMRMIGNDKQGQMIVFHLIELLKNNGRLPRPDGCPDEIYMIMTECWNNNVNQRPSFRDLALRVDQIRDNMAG

Row | IC50 [1] | Kinase activity @ 500 nM (%) JAK2 [2] | IC50 [3] | inhibition at 0.5 µM [5] | SMILES | IC50 [4]
1 | 100 to 1000 nM | 34% | > 1000 nM | 23% | Cc1cnc(Nc2ccc(CCNC(=O)/C=C/CN(C)C)cc2)nc1-c1cnn(C(C)C)c1 [CLJ-80, (E)-N-(4-((4-(1-isopropyl-1H-pyrazole-4-yl)-5-methylpyrimidine-2-yl)amino)phenylethyl)-4-dimethylamino-2-butenamide] | > 1000 nM
2 | > 1000 nM | 34% | > 1000 nM | 22% | Cc1cnc(Nc2ccc(CNC(=O)/C=C/C(=O)c3ccccc3)cc2)nc1-c1cnn(C(C)C)c1 [CLJ-81, N-(4-((4-(1-isopropyl-1H-pyrazole-4-yl)-5-methylpyrimidine-2-yl)amino)benzyl)-3-benzoyl acrylamide] | > 1000 nM
3 | 10 to 100 nM | 88% | 10 to 100 nM | 89% | Cc1cnc(Nc2ccc(CNC(=O)CCCN(C)C)cc2)nc1-c1cnn(C(C)C)c1 [CLJ-83, N-(4-((4-(1-isopropyl-1H-pyrazole-4-yl)-5-methylpyrimidine-2-yl)amino)benzyl)-4-dimethylaminobutyramide] | 100 to 1000 nM
4 | 100 to 1000 nM | 56% | > 1000 nM | 67% | Cc1cnc(Nc2ccc(CNC(=O)CCl)cc2)nc1-c1cnn(C(C)C)c1 [CLJ-85, N-(4-((4-(1-isopropyl-1H-pyrazole-4-yl)-5-methylpyrimidine-2-yl)amino)benzyl)-2-chloroacetamide] | > 1000 nM
5 | > 1000 nM | 20% | > 1000 nM | 32% | Cc1cnc(Nc2ccc(CCNC(=O)CCCl)cc2)nc1-c1cnn(C(C)C)c1 [CLJ-88, N-(4-((4-(1-isopropyl-1H-pyrazole-4-yl)-5-methylpyrimidine-2-yl)amino)phenethyl)-3-chloropropanamide] | > 1000 nM
6 | 10 to 100 nM | 99% | 10 to 100 nM | 101% | Cc1cnc(Nc2ccc(NC(=O)[C@H]3C[C@H](F)CN3)c(F)c2)nc1-c1cnn(C(C)C)c1 [CLJ-97, (2R,4S)-4-fluoro-N-(2-fluoro-4-((4-(1-isopropyl-1H-pyrazole-4-yl)-5-methylpyrimidine-2-yl)amino)phenyl) pyrrolidine-2-carboxamide] | 100 to 1000 nM

The remaining lines, values behind:

Row | SMILES | IC50 [1] | Kinase activity @ 500 nM (%) JAK2 [2] | IC50 [3] | inhibition at 0.5 µM [5] | IC50 [4]
7 | Cc1cnc(Nc2ccc(CNC(=O)/C=C/CN(C)C)cc2)nc1-c1cnn(C(C)C)c1 [CLJ-79, (E)-N-(4-((4-(1-isopropyl-1H-pyrazole-4-yl)-5-methylpyrimidine-2-yl)amino)benzyl)-4-dimethylamino-2-butenamide] | 100 to 1000 nM | 44% | 100 to 1000 nM | 45% | 100 to 1000 nM
8 | Cc1cnc(Nc2ccc(CCNC(=O)/C=C/C(=O)c3ccccc3)cc2)nc1-c1cnn(C(C)C)c1 [CLJ-82, N-(4-((4-(1-isopropyl-1H-pyrazole-4-yl)-5-methylpyrimidine-2-yl)amino)phenethyl)-3-benzoyl acrylamide] | > 1000 nM | 20% | > 1000 nM | 12% | > 1000 nM
9 | Cc1cnc(Nc2ccc(CCNC(=O)CCCN(C)C)cc2)nc1-c1cnn(C(C)C)c1 [CLJ-84, N-(4-((4-(1-isopropyl-1H-pyrazole-4-yl)-5-methylpyrimidine-2-yl)amino)phenethyl)-4-dimethylaminobutyramide] | 100 to 1000 nM | 79% | 100 to 1000 nM | 78% | 100 to 1000 nM
10 | Cc1cnc(Nc2ccc(CCNC(=O)CCl)cc2)nc1-c1cnn(C(C)C)c1 [CLJ-86, N-(4-((4-(1-isopropyl-1H-pyrazole-4-yl)-5-methylpyrimidine-2-yl)amino)phenethyl)-2-chloroacetamide] | 100 to 1000 nM | 37% | > 1000 nM | 45% | > 1000 nM
11 | Cc1cnc(Nc2ccc(CNC(=O)CCCl)cc2)nc1-c1cnn(C(C)C)c1 [CLJ-87, N-(4-((4-(1-isopropyl-1H-pyrazole-4-yl)-5-methylpyrimidine-2-yl)amino)benzyl)-3-chloropropanamide] | > 1000 nM | 39% | > 1000 nM | 45% | > 1000 nM
12 | C=CS(=O)(=O)NCc1ccc(Nc2ncc(C)c(-c3cnn(C(C)C)c3)n2)cc1 [CLJ-89] | 100 to 1000 nM | 99% | > 1000 nM | 47% | 10 to 100 nM
13 | C=CS(=O)(=O)NCCc1ccc(Nc2ncc(C)c(-c3cnn(C(C)C)c3)n2)cc1 [CLJ-90] | 10 to 100 nM | 97% | 10 to 100 nM | 95% | 100 to 1000 nM
14 | CCS(=O)(=O)c1nn(C(C)C)cc1-c1nc(Nc2ccc(N3CCC(N(C)CCO)CC3)c(F)c2)ncc1C [CLJ-92, 5-methyl-N-(3-fluoro-4-(4-N-hydroxyethyl-4-N-methylaminopiperidine-1-yl)phenyl)-4-(1-isopropyl-3-ethylsulfonyl-1H-pyrazole-4-yl) pyrimidine-2-amine] | 10 to 100 nM | 104% | 10 to 100 nM | 98% | 100 to 1000 nM
15 | Cc1cnc(Nc2ccc(NC(=O)[C@H]3CCCN3)c(F)c2)nc1-c1cnn(C(C)C)c1 [CLJ-93, (R)-2-((2-fluoro-4-((4-(1-isopropyl-1H-pyrazole-4-yl)-5-methylpyrimidine-2-yl)amino)phenyl)carbamoyl) pyrrolidine] | 10 to 100 nM | 100% | 10 to 100 nM | 97% | 100 to 1000 nM
16 | Cc1cnc(Nc2ccc(NS(=O)(=O)c3ccc4c(c3)CC(=O)N4)c(F)c2)nc1-c1cnn(C(C)C)c1 [CLJ-95, N-(2-fluoro-4-((4-(1-isopropyl-1H-pyrazole-4-yl)-5-methylpyrimidine-2-yl)amino)phenyl)-2-oxoindoline-5-sulfonamide] | 100 to 1000 nM | 66% | 100 to 1000 nM | 67% | 100 to 1000 nM
17 | Cc1cnc(Nc2ccc(NC(=O)[C@H]3CCCN3CC3CC3)c(F)c2)nc1-c1cnn(C(C)C)c1 [CLJ-96, (R)-1-(cyclopropylmethyl)-N-(2-fluoro-4-((4-(1-isopropyl-1H-pyrazole-4-yl)-5-methylpyrimidine-2-yl)amino)phenyl) pyrrolidine-2-carboxamide] | 100 to 1000 nM | 73% | 100 to 1000 nM | 56% | 100 to 1000 nM
18 | Cc1cnc(Nc2ccc(NC(=O)CN3CCS(=O)(=O)CC3)c(F)c2)nc1-c1cnn(C(C)C)c1 [CLJ-98, 2-(1,1-dioxthiomorpholine)-N-(2-fluoro-4-((4-(1-isopropyl-1H-pyrazol-4-yl)-5-methylpyrimidine-2-yl)amino)phenyl) acetamide] | 10 to 100 nM | 97% | 10 to 100 nM | 95% | 100 to 1000 nM
19 | Cc1cnc(Nc2ccc(S(=O)(=O)NC3CC3)cc2)nc1-c1cnn(C(C)C)c1 [CLJ-99, N-cyclopropyl-4-((4-(1-isopropyl-1H-pyrazol-4-yl)-5-methylpyrimidine-2-yl)amino) benzenesulfonamide] | 10 to 100 nM | 100% | 10 to 100 nM | 97% | 100 to 1000 nM
